According to PMC9865163, “Structural Basis of the Inhibition of L-Methionine γ-Lyase from Fusobacterium nucleatum” (International Journal of Molecular Sciences, 2023):
Where a name gives a salt, the structure may show the parent alone. Read-outs that look alike come from different tables or passages of the source. Where a SMILES comes first, the peptide text is derived from it. The star is where a group is joined. PhAc = O=C(Cc1ccccc1)*

Assays:
Fn1419 [1] = target: T1, Fn1419 (Fusobacterium nucleatum subsp. nucleatum, UniProt Q8RDT4); format: biochemical
T1 construct: Fn1419 (GeneBank: AAL95612.1, residues 1–395); His-tag (N); made in house; host or cells: E. coli BL21 (DE3)
Experimental: MGL^Cys activity of Fn1419 was measured as previously reported. Fn1419 (5.75 nM) in assay buffer (40 mM potassium phosphate, pH 7.6, and 10 μM PLP) was mixed with various concentrations of L-cysteine (25, 50, 100, 200, 400, 800, or 1000 μM) and incubated for 15 min at 37 °C. H2S, the reaction product, was then detected based on methylene blue formation. Specifically, 100 μL of solution A (the enzyme reaction solution), 20 μL of solution B (20 mM N′,N′-dimethyl-p-phenylenediamine dihydrochloride and 7.2 M HCl), and 20 μL of solution C (30 mM FeCl3 and 1.2 M HCl) were mixed, and the mixture incubated for 30 min at room temperature.
(§1) Then, 500 μM L-cysteine was added, and the reaction was allowed to proceed for 5 min at 37 °C. The amount of produced H2S was detected indirectly, based on the formation of methylene blue. The reaction mixture consisted of solution A (100 μL), solution B (20 μL), and solution C (20 μL) (the solution composition is described at the enzyme assays) and was incubated for 30 min at 20 °C. The amount of generated methylene blue was detected at 670 nm, using a SpectraMax 190 Microplate Reader (Molecular Devices, San Jose, CA, USA) at 25 °C.

Fn1419 [2] = target: T1, Fn1419; assay: IC50 determination on MGL^Cys activity of Fn1419; format: biochemical
Experimental: as §1
The concentration of the enzyme was 5.75 nM and the concentration of the six above-mentioned compounds was 500 μM. IC50 values were eventually calculated from non-linear regression curves fitted.

[3] = not told; cited from earlier work
[4] = in vivo; cited from earlier work
Fn1220 = assay: Inhibitory effect of gallic acid on H2S production of Fn1220; format: biochemical, Fusobacterium nucleatum; details: 500 μM gallic acid, 5.75 nM enzyme
Experimental: as §1

Fn1055 = assay: Inhibitory effect of gallic acid on H2S production of Fn1055; format: biochemical, Fusobacterium nucleatum; details: 500 μM gallic acid, 5.75 nM enzyme
Experimental: as §1

[5] = system: antibiotic-resistant S. aureus; details: antibiotic-resistant S. aureus strains; cited from earlier work
E. coli = E. coli strains; cited from earlier work
Mannheimia haemolytica = Mannheimia haemolytica strains; cited from earlier work
Pasteurella multocida = Pasteurella multocida strains; cited from earlier work
[6] = 100 μM compound, 5.75 nM Fn1419, 500 μM L-cysteine
[7] = 5.75 nM enzyme, preincubation 20 min at 20 °C, read-out: IC50 (Fn1419 MGL^Cys activity)

T1 sequence (Q8RDT4 whole entry, the tested form may be a part): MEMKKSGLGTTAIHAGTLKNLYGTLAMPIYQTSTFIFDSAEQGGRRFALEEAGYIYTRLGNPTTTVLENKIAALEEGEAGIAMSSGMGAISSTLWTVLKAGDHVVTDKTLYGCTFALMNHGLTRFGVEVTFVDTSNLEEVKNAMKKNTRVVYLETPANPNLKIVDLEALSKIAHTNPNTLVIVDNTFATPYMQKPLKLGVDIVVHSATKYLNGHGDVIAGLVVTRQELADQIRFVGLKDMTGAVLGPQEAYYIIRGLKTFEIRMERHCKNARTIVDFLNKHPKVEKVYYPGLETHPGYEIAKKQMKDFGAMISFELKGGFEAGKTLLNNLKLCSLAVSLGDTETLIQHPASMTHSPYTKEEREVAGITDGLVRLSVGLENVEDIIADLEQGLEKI

| Compound | product increase rate (MGL^Cys activity of Fn1419 enhanced) (Fn1419 [1]; [6]) [%] | effect on MGL^Cys enzyme activity of Fn1419 (in words) (Fn1419 [1]; [6]) | further results |
| --- | --- | --- | --- |
| chondroitin sulfate | 5.8 |  |  |
| N[C@@H](CCC(=O)O)C(=O)O [L-glutamate] |  | did not significantly affect enzyme activity |  |
| C[N+](C)(C)CCOP(=O)([O-])OP(=O)([O-])OC[C@H]1O[C@@H](n2ccc(N)nc2=O)[C@H](O)[C@@H]1O.[Na+] [citicoline sodium] |  | did not significantly affect enzyme activity |  |
| OC[C@@H](O)[C@H](O)[C@@H](O)CO [xylitol] |  | did not significantly affect enzyme activity |  |
| N[C@@H](Cc1c[nH]c2ccc(O)cc12)C(=O)O [5-hydroxyl tryptophan] | 53.0 |  |  |
| O=C(O)c1cccnc1 [niacin] |  |  | effect on MGL^Cys enzyme activity of Fn1419 (in words) (Fn1419 [1]): did not significantly affect enzyme activity |
| COC(=O)c1cc(O)c(O)c(O)c1 [methyl gallate] |  |  | product reduction rate (MGL^Cys activity of Fn1419) (Fn1419 [1]; [6]): 81.5% |
| CCCCCCCC/C=C\CCCCCCCC(N)=O [oleamide] | 24.6 |  |  |
| O[C@H]1[C@H](O)[C@@H](O)[C@H](O)[C@@H](O)[C@H]1O [inositol] |  | did not significantly affect enzyme activity |  |
| COc1cc2c(cc1OC)[C@@H]1Cc3ccc(OC)c(OC)c3CN1CC2 [L-tetrahydropal matrine] | 71.7 |  |  |
| COc1cc(C(=O)O)cc(OC)c1OC [gallic acid trimethyl ether] |  | did not affect |  |
| O=C1O[C@H]([C@@H](O)CO)C(O)=C1O [vitamin C] |  | did not significantly affect enzyme activity |  |
| Oc1cccc(O)c1O [pyrogallic acid] |  |  | product reduction rate (MGL^Cys activity of Fn1419) (Fn1419 [1]; [6]): 89.8%; IC50 (Fn1419 [2]): 57 µM |
| O=C(O)C1(O)C[C@@H](O)C(O)[C@H](O)C1 (stereo partly drawn) [D-quinic acid] | 35.1 |  |  |
| CCOC(=O)c1cc(O)c(O)c(O)c1 [ethyl gallate] |  |  | product reduction rate (MGL^Cys activity of Fn1419) (Fn1419 [1]; [6]): 81.9%; IC50 (Fn1419 [2]; [7]): 517 µM |
| CCOC(=O)CNC(=O)[C@@H]1CCCN1C(=O)Cc1ccccc1 [noopept] (PhAc-Pro-Gly-OEt) | 21.8 |  |  |
| OCc1c[nH]c2ccccc12 [indole-3-carbinol] |  | not significantly affected |  |
| COc1cc(/C=C/C(=O)CC(=O)/C=C/c2ccc(O)c(OC)c2)ccc1O [curcumin] |  |  | product reduction rate (MGL^Cys activity of Fn1419) (Fn1419 [1]; [6]): 53.9% |
| C[N+](C)(C)CC(=O)O [betaine-HCl] | 24 |  |  |
| Cc1ncc(CO)c(CO)c1O [pyridoxine-HCl] |  | did not significantly affect enzyme activity |  |
| O=c1c(O)c(-c2ccc(O)cc2)oc2cc(O)cc(O)c12 [kaempferol] |  |  | product reduction rate (MGL^Cys activity of Fn1419) (Fn1419 [1]; [6]): 40.4% |
| C[N+](C)(C)C[C@H](O)CC(=O)[O-] [L-carnitine] |  | did not significantly affect enzyme activity |  |

| Compound | product increase rate (MGL^Cys activity of Fn1419 enhanced) (Fn1419 [1]; [6]) [%] | effect on MGL^Cys enzyme activity of Fn1419 (in words) (Fn1419 [1]; [6]) | further results |
| --- | --- | --- | --- |
| O=C1c2c(O)cc(O)cc2O[C@H](c2cc(O)c(O)c(O)c2)[C@H]1O [dihydromyricetin] |  |  | product reduction rate (MGL^Cys activity of Fn1419) (Fn1419 [1]; [6]): 89.5%; IC50 (Fn1419 [2]; [7]): 23 µM; permeability [3]: low; bioavailability [4]: poor |
| OC[C@@H](O)[C@@H](O)CO [erythritol] | 16.4 |  |  |
| NC(=O)CN1CC(c2ccccc2)CC1=O (stereo not shown) [phenylpiracetam] |  | did not significantly affect enzyme activity |  |
| O=C(O)CCCCC1CCSS1 (stereo not drawn) [α-lipoic acid] |  | not significantly affected |  |
| Nc1ncnc2c1ncn2[C@@H]1O[C@H](CO)C[C@H]1O [cordycepin] |  | did not significantly affect enzyme activity |  |
| CN(C)CCc1ccc(O)cc1.Cl [hordenine HCl] | 32.1 |  |  |
| CC(=O)O[C@H](CC(=O)O)C[N+](C)(C)C.[Cl-] [acetyl L-carnitine HCl] |  | not significantly affected |  |
| O=C(/C=C/c1ccc(O)c(O)c1)O[C@@H]1C[C@](O)(C(=O)O)C[C@@H](O)[C@H]1O [chlorogenic acid] |  | did not significantly affect enzyme activity |  |
| Cl.NCC(CC(=O)O)c1ccccc1 (stereo not shown) [phenibut HCl] | 61.8 |  |  |
| C[C@@H]1O[C@@H](OC[C@H]2O[C@@H](Oc3c(-c4ccc(O)c(O)c4)oc4cc(O)cc(O)c4c3=O)[C@H](O)[C@@H](O)[C@@H]2O)[C@H](O)[C@H](O)[C@H]1O [rutin] |  |  | product reduction rate (MGL^Cys activity of Fn1419) (Fn1419 [1]; [6]): 18.2% |
| C/C=C/C=C/C(=O)[O-].[K+] [potassium sorbate] |  |  | product reduction rate (MGL^Cys activity of Fn1419) (Fn1419 [1]): 5.3% |
| CN(CC(=O)O)C(=N)N.O [creatine monohydrate] |  |  | product reduction rate (MGL^Cys activity of Fn1419) (Fn1419 [1]; [6]): 11.2% |
| O=C1CCC[C@@H]2[C@H]3CCCN4CCC[C@@H](CN12)[C@@H]34 [matrine] | 4.9 |  |  |
| C[N+](C)(C)CCO.O=C([O-])C(O)C(O)C(=O)O (stereo not shown) [choline bitartrate] |  |  | product increase rate (MGL^Cys activity of Fn1419 enhanced) (Fn1419 [1]): 13.3% |
| NCCCC(=O)O [GABA] | 9.9 |  |  |
| O.O.O.O.O.OC[C@H]1O[C@H](OC[C@H]2O[C@H](O[C@]3(CO)O[C@H](CO)[C@@H](O)[C@@H]3O)[C@H](O)[C@@H](O)[C@@H]2O)[C@H](O)[C@@H](O)[C@H]1O [D-raffinose pentahydrate] | 72.5 |  |  |
| CNCC(O)c1ccc(O)cc1 (stereo not shown) [synephrine] |  |  | product reduction rate (MGL^Cys activity of Fn1419) (Fn1419 [1]; [6]): 32.4% |
| O=c1cc(-c2ccc(O)cc2)oc2cc(O)cc(O)c12 [apigenin] |  | not significantly affected |  |
| O=C(O)c1cc(O)c(O)c(O)c1 [gallic acid] |  |  | product reduction rate (MGL^Cys activity of Fn1419) (Fn1419 [1]; [6]): 84.8%; IC50 (Fn1419 [2]): 121 µM; inhibition of Fn1220 (in words) (Fn1220): did not inhibit; inhibition of Fn1055 (in words) (Fn1055): did not inhibit; growth inhibition (in words) [5]: strongly inhibits the growth; growth inhibition (in words) (E. coli): strongly inhibits the growth; growth inhibition (in words) (Mannheimia haemolytica): strongly inhibits the growth; growth inhibition (in words) (Pasteurella multocida): strongly inhibits the growth |
| O=C(O)/C=C/c1ccc(O)cc1 [p-coumaric, p-coumaric acid] |  | not significantly affected |  |
| CC(=O)N[C@@H](CS)C(=O)O [N-acetyl-cysteine] |  |  | product reduction rate (MGL^Cys activity of Fn1419) (Fn1419 [1]; [6]): 12% |
